Entries after “also recorded” stand apart in the source; their conditions may differ.
Assays:
[1] = tested on: Kir7.1 channel in LCA16 iPSC-RPE cells; experiment: Whole-cell patch clamp of LCA16 patient-derived iPSC-RPE cells; format: cell-based, human
Procedure: Electrophysiology. Standard whole cell patch clamp on single cells were performed as described^6 Briefly, the tight monolayer of hiPSC-RPE grown on a 6.5 mm transwell was dissociated into a single cell suspension as follows: the medium in which cells were maintained was completely removed and the cells were washed twice with 0NaCMF solution (135 mM NMDG-Cl, 5 mM KCl, 10 mM HEPES, 10 mM Glucose, 2 mM EDTA-KOH and adjusted to pH 7.4 with NMDG free base). The cells were then incubated with 0NaCMF containing papain (2.5 μl/ml), cysteine (0.3 mg/ml), glutathione (0.25 mg/ml) and taurine (0.05 mg/ml) for 45 mins at 37° C. The cells were rinsed with 0NaCMF solution to remove enzymes, resuspended in HEPES-Ringer's (HR) solution [NaCl (135 mM), KCl (5 mM), CaCl2) (1.8 mM), MgCl2 (1 mM), HEPES (10 mM), D-glucose (10 mM), pH 7.4±0.1 with NaOH, prepared in ddH2O], and kept on ice for up to 8 hrs until used for electrophysiological recording.
Single hiPSC-RPE cells with distinct apical processes were chosen for conventional patch clamping. Patch pipettes with a resistance of […] were fabricated from borosilicate capillaries using a pipet puller (P-1000®, Sutter instruments). The glass electrode was then fire polished using a microforge (MF-830®, Narshige). Data acquisition and the holding potential parameters were controlled using the Clampex® software (Axon instruments). Current recorded from the successful patch was amplified using Axopatch 200-B® (Axon Instruments) and filtered at 2 KHz. The signal was digitized using digidata 1400A® (Axon instruments) and analyzed using Clampfit® (Axon Instruments). During patch clamping, HR solution was continuously perfused as an external solution. The patch pipette was filled with solution containing 30 mM KCl, 83 mM K-gluconate, 5.5 mM EGTA-KOH, 0.05 mM CaCl2), 4 mM MgCl2, 10 mM HEPES, pH adjusted to 7.2 with KOH and filtered using the 0.2 μm filter.

[2] = tested on: Kir7.1 Trp53Ter protein in CHO-K1 cells; experiment: Immunoprecipitation / Western blot of GFP-fused Kir7.1 Trp53Ter protein after read-through; format: cell-based; settings: Kir7.1-GFP fusion W53X, NB84-treated cells, anti-GFP
[3] = LCA16 hiPSC-RPE subgroup, 100 or 500 μM NB84

`C[C@@H](O)C1O[C@H](O[C@@H]2C(N)C[C@@H](NC(=O)[C@@H](O)CCN)[C@@H](O)C2O[C@@H]2O[C@H](CN)[C@H](O)C2O)[C@@H](N)C(O)[C@@H]1O` (some centres unmarked) [NB84] was tested, and the “Current amplitude rescue in a subpopulation of cells” value [1, 3] was “no rescue in current amplitude”, the “Membrane potential rescue in a subpopulation of cells” value [1, 3] was “rescue of membrane potential to control levels” and the “Enhancement of current by Rb+” value ([1]; LCA16 iPSC-RPE, 500 μM NB84) was 10 fold. For the same compound, the “Current amplitude upon introduction of Rb+” value ([1]; LCA16 iPSC-RPE, 500 μM NB84, high external Rb+, −150 mV, n=8) was −1562.7±546.7 pA, the “Kir7.1 current amplitude, normal external K+” value ([1]; LCA16 iPSC-RPE, 500 μM NB84, inward current at −150 mV, n=8) was −94.3±24 pA and the Membrane potential ([1]; LCA16 iPSC-RPE, NB84-treated cells, n=10) was −56.3±3.6 mV. For the same compound, the “Resting membrane potential versus control level” value ([1]; LCA16 iPSC-RPE, bar graph comparison FIG. 7D) was “recovery of LCA16 iPSC-RPE to control level” and the “Full-length Kir7.1 protein product” value [2] was “a protein band equivalent to the full-length product was detected; also recorded: partial restoration of the full-length protein product”.
